± gives the expanded uncertainty stated by the source.
Assay: mean ionic activity coefficient (dimensionless); mn = molality of the nth substance listed, in mol/kg
Conditions: 298.15 K, 101 kPa, Liquid

[Cl-].[Na+] [sodium chloride] + O
Conditions	mean ionic activity coefficient
m1 = 0.2	0.734 ± 0.05
m1 = 0.4	0.694 ± 0.05
m1 = 0.6	0.676 ± 0.05
m1 = 0.8	0.666 ± 0.05
m1 = 1	0.662 ± 0.05
m1 = 1.2	0.66 ± 0.05
m1 = 1.4	0.662 ± 0.05
m1 = 1.6	0.665 ± 0.05
m1 = 1.8	0.669 ± 0.05
m1 = 2	0.675 ± 0.05
m1 = 2.2	0.682 ± 0.05
m1 = 2.4	0.69 ± 0.05
m1 = 2.6	0.699 ± 0.05
m1 = 2.8	0.709 ± 0.05
m1 = 3	0.72 ± 0.05
m1 = 3.2	0.732 ± 0.05
m1 = 3.4	0.744 ± 0.05
m1 = 3.6	0.758 ± 0.05
m1 = 3.8	0.772 ± 0.05
m1 = 4	0.787 ± 0.05
m1 = 4.2	0.803 ± 0.05
m1 = 4.4	0.82 ± 0.05
m1 = 4.6	0.838 ± 0.05
m1 = 4.8	0.857 ± 0.05
m1 = 5	0.877 ± 0.05
m1 = 5.2	0.898 ± 0.05
m1 = 5.4	0.92 ± 0.05
m1 = 5.6	0.943 ± 0.05
m1 = 5.8	0.968 ± 0.05
m1 = 6	0.993 ± 0.05
m1 = 6.144	1.01 ± 0.051

[Cl-].[K+] [potassium chloride] + O
Conditions	mean ionic activity coefficient
m1 = 0.2	0.719 ± 0.05
m1 = 0.4	0.669 ± 0.05
m1 = 0.6	0.641 ± 0.05
m1 = 0.8	0.623 ± 0.05
m1 = 1	0.61 ± 0.05
m1 = 1.2	0.601 ± 0.05
m1 = 1.4	0.593 ± 0.05
m1 = 1.6	0.588 ± 0.05
m1 = 1.8	0.584 ± 0.05
m1 = 2	0.58 ± 0.05
m1 = 2.2	0.578 ± 0.05
m1 = 2.4	0.576 ± 0.05
m1 = 2.6	0.575 ± 0.05
m1 = 2.8	0.575 ± 0.05
m1 = 3	0.575 ± 0.05
m1 = 3.2	0.576 ± 0.05
m1 = 3.4	0.576 ± 0.05
m1 = 3.6	0.578 ± 0.05
m1 = 3.8	0.58 ± 0.05
m1 = 4	0.582 ± 0.05
m1 = 4.2	0.584 ± 0.05
m1 = 4.4	0.587 ± 0.05
m1 = 4.6	0.59 ± 0.05
m1 = 4.8	0.593 ± 0.05
m1 = 4.803	0.593 ± 0.05
